Source: ChEMBL document CHEMBL5149994, “Anticancer potential of indirubins in medicinal chemistry: Biological activity, structural modification, and structure-activity relationship” (Eur J Med Chem, 2021)

Assays:
Assay type in all cases: functional
[1] = Antitumor activity against human TT cells xenografted in BALB/c nu/nu mouse assessed as reduction in tumour weight at 40 mg/kg per day, po administered via oral gavage daily measured after 21 days relative to control; set-up: scale not given: the % may be the effect or the level left; settings: time 21 day
[2] = Antiproliferative activity against human TT cells assessed as cell growth inhibition measured after 72 hrs by EZ-CyTox reagent based analysis
MV4-11 [3] = test: Antitumor activity against human MV4-11 cells xenografted in mouse assessed as reduction in tumour volume at 10 mg/kg per day, iv measured after 21 days relative to control; set-up: scale not given: the % may be the effect or the level left; settings: time 21 day
SNU-638 = test: Antiproliferative activity against human SNU-638 cells assessed as cell growth inhibition
PC-3 = test: Antiproliferative activity against human PC-3 cells assessed as cell growth inhibition
MV4-11 [4] = test: Antiproliferative activity against human MV4-11 cells assessed as cell growth inhibition
MeWo = test: Antitumor activity against human MeWo cells xenografted in mouse assessed as reduction in tumour volume at 50 mg/kg per day, po administered via oral gavage measured after 14 days relative to control; set-up: scale not given: the % may be the effect or the level left; settings: time 14 day

SMILES: Cl.O=C1Nc2ccccc2/C1=C1/Nc2ccccc2/C1=N\OCCN1CCNCC1
- Activity [1]: 62.5%
- GI50 [2]: 68200 nM

SMILES: COC(=O)c1ccc2c(c1)/C(=C1/Nc3ccccc3/C1=N\OCCN1CCNCC1)C(=O)N2.Cl.Cl
- Activity (MV4-11 [3]): 100%
- GI50 (SNU-638): 2250 nM
- GI50 (PC-3): 1100 nM
- GI50 (MV4-11 [4]): 1.2 nM

SMILES: Cl.Cl.O=C1Nc2c(Br)cccc2/C1=C1/Nc2ccccc2/C1=N\OCCN1CCNCC1
- Activity (MeWo): 37%
